One series has as its system Renal cancer cell lines. In words: NCI 60 five-dose screen, renal panel. It is filed as cell-based, human. To be noted: 48 h. How it is done:
(§1) National Cancer Institute Cancer Cell Line (NCI 60) Screen of DefNEtTrp. Details of the methodology for NCI 60 cell line screening are described at http://dtp.nci.nih.gov/branches/btb/ivclsp.html. The cells, grown in supplemented RPMI-1640 medium, are seeded in 96 well plates at an appropriate density and incubated for 24 h. The test compounds are dissolved in DMSO and incubated with cells at a single dose of 10.0 μM for 48 h. The assay is terminated by addition of cold trichloroacetic acid, and the cells are fixed and stained with sulforhodamine B. Bound stain is solubilized, and the absorbance is read on an automated plate reader. […] Using the seven absorbance measurements [time zero, […], control growth, (C), and test growth in the presence of drug at the five concentration levels (Tf)], the percentage growth was calculated at each of the drug concentrations levels as: [(Tf−Ti)/(C−Ti)]×100 for concentrations for which Tf≥Ti and [(Tf−Ti)/Ti]×100 for concentrations for which Tf<Ti. Three-dose response parameters (GI50, TGI, and LC50) were calculated for each of the experimental agents in five dose assay. […] The total growth inhibition (TGI) was calculated from Tf=Ti, which was the drug concentration resulting in total growth inhibition and signified the cytostatic effect. […]

In series [1] the test system is Jurkat Leukemia cell line. The series is described as follows: Jurkat cell viability (MTT assay). The series is classed as cell-based. The following applies: 72 h. How it is done: Jurkat cell culturing and cell viability studies. Jurkat cells are nonadherent cells, and they were cultured in an RPMI-1640 media (supplemented with 10% FBS (v/v) and 1% antibiotic solution (v/v) of penicillin/streptomycin) in non-tissue-culture treated 25 mL flasks according to the known protocol provided by the supplier ATCC. The cell passaging was done at 70% confluency by taking 3 mL of cells and diluting to 25 mL of fresh media. The cells were incubated at 37° C. in 5% CO2 atmosphere.
Jurkat cytotoxicity of DefNEtTrp (6), Def (5), NEtTrp (4), Trp, and 1:1 combinations of 5 with 4 and 5 with Trp was determined by the colorimetric 3-(4,5-dimethylthiazol-2-yl)-2,5-diphenyltetrazolium bromide (MTT) assay. Incubation conditions were the same in all the steps. Cells in 80-95% confluence (grown in standard circular tissue culture dishes, BD Falcon) were separately seeded into 96-well plates using phenol red free RPMI-1640 media (containing 10% FBS and 1% streptomycin/penicillin) in a volume of 50 μL at a concentration of 5.0×10^5 cells/mL. Following this procedure, the Jurkat cells were treated immediately. Stock solution of the compounds were first prepared in DMF at 5 mM and stored at 4° C. for up to 30 days. The stock solution was diluted to specific concentrations using 1×PBS (0.2-20 μM) while DMF was maintained at 1% (v/v). 50 μL of diluted solutions were added in all cell containing wells with at least six replicates per concentration (n=6). The final percentage (v/v) of DMF was 0.5%. The cells were also co-treated with 5 with 4 and 5 with Trp in a 1:1 mole equivalent ratio over the same concentration range but as a combined concentration of both compounds. Control wells in the plates consisted of one lane of cells treated with media alone including 0.5% DMF (v/v) as the measure of 100% viable cell growth in the media. Another control lane consisted of no cells with media including 0.5% DMF (v/v) as a measure of the background with no viable cells. The plates were incubated for 72 h. At 4 h before completion of the incubation time, 25 μL of MTT solution (sterile filtered 5 mg/mL solution, dissolved in 1×PBS buffer) was added to each well. During addition of the MTT solution, the plates were protected from light. After completion a 50 μL portion of 4% (w/v) SDS solution (sterile filtered, dissolved in Tris buffer 1M, pH=10) was added to each well and incubated to solubilize formazan crystals after MTT cell labeling. The absorbance of each well was measured at 570 nm (absorbance of the formazan product at pH >10.0) and 800 nm (as a background correction) using a Tecan plate reader. The absorbance of all wells was compared to the absorbance of the untreated cells with the MTT set as the 100% viable cell standard and the absorbance of the no cell control set as the 0% viable cell standard. Nonlinear regression in GraphPad Prism 8 was utilized to fit the growth curve over the various drug concentrations to determine the half-maximal inhibitory concentration (IC50). All cell viability experiments, including non-Jurkat cells, were repeated at least once for biological duplicates. To confirm cell death at the higher concentration dosages of the compounds and combinations, dead cells were blue stained with trypan blue and visually inspected under the microscope.
A general note: Tetrazolium assays rely on reduction of a dye to a coloured formazan, in cell work by metabolically active cells.

The subject of a further series is Jurkat cells. The series is described as follows: Apoptosis mechanistic cell viability study (Q-VD-OPh). To be noted: 10 μM Q-VD-OPh pretreatment, 2 μM DefNEtTrp, 72 h. It is filed as cell-based, human. How it is done:
Apoptosis mechanistic cell viability study. Jurkat cells were seeded into 96-well plates, as indicated in the MTT assay described above. The cells were treated with 10 μM of the apoptosis inhibitor Q-VD-OPh (Q-V-O). Another group of cells were treated with media alone. After 1 h incubation, half of the cells supplemented with Q-V-O were treated with 2 μM DefNEtTrp or 2 μM cisplatin, as positive control, while the other half was treated with media alone. The final percentage of DMF was maintained at 0.5% (v/v). The MTT assay was performed with these samples (n=6). A student t-test was performed to evaluate the difference in the viability of cells treated with DefNEtTrp or cisplatin and supplemented with and without Q-V-O.

The subject of series [2] is Non-Small Cell Lung cancer cell lines. The series is described as follows: NCI 60 five-dose screen, non-small cell lung panel. To be noted: 48 h. The series is classed as cell-based, human. How it is done: as §1
Where [3] appears, read: cell lines in which TGI was observed.
[4] abbreviates: Homo sapiens, read-out: GI50 (calculated average).

The GI50 is the concentration at which growth is held to half of that of the control. As a reminder, the IC50 is the concentration at which inhibition is half-maximal.

In the case of `Nc1cccnc1/C=N/NC(=S)NCCNC(=O)c1ccc(-n2nc(-c3ccccc3O)nc2-c2ccccc2O)cc1` [DefNEtTrp, deferasirox nitrogen ethyl triapine], the “TGI (calculated average)” value with Renal cancer cell lines (setting [3]) was 13.71 µM; in series [2] (setting [3]) it was 6.33 µM. For the same molecule, the GI50 was 4.97 µM with Renal cancer cell lines (setting [4]) and 730 nM in series [2] (setting [4]). Moreover, the IC50 in series [1] (Homo sapiens, Jurkat cell line, MTT) amounted to 770 ± 60 nM. Also, the “cytotoxic effect compared with Def, NEtTrp and Trp in single drug and combination drug treatments” value in series [1] (Jurkat) is listed as “superior cytotoxic effect”. Further, in the series on Jurkat cells, the “change in viability of cells pretreated with Q-VD-OPh” value is reported as “two-fold increase in viability”.

These data come from US20260055081A1, “Metal Chelator Compounds, Coordination Complexes, and Methods of Preparation and Use Thereof” (University of Puerto Rico, priority 2022, published 2026).
